Test results published in patent US10207988B2, “Methods and compositions for treatment of cancer and autoimmune disease” (THE JACKSON LABORATORY, priority 2011, dated 2019).

What was measured:
[1] = tested on: AID+/+ (C57BL/6) or AID−/− mice; assay: systemic DIDS treatment of DNP-KLH immunized mice; assay type: in vivo
Protocol: To test the in vivo effectiveness of DIDS, either AID+/+ (C57BL/6) or AID−/− mice (Muramatsu et al. et al., 2000 supra) were administered DIDS (10 mg/kg or 50 mg/kg) at weekly intervals, immunized at weeks 1 with dinitrophenol conjugated Keyhole limpet hemocyanin (DNP-KLH) in complete Freund's adjuvant (CFA) to stimulate lymphocyte activation, and boosted after 4 weeks with DNP-KLH (in incomplete Freund's adjuvant, IFA). After a total of 7 weeks (FIG. 25A) mice were euthanized. The group size was n=5. […] For this the mice were weighed weekly and the data represent the average fractional change in body mass for five animals, and error bars denote S.E.M.
After the 7-week trial window, tissues from treated and control animals were fixed, sectioned, and analyzed after hematoxylin and eosin (H&E) staining. […] To determine whether DIDS induced a B-cell specific phenotype related to AID, bone marrow, spleen, and peripheral blood, from DIDS-treated AID+/+ versus AID−/− mice, were analyzed for the presence of B220+CD19+ B-cells, by flow cytometry (FIG. 26). […] In FIG. 26 the endpoint flow cytometry dot plot analysis of bone marrow, spleen, and peripheral blood from AID−/− and AID+/+ mice immunized with DNP-KLH and treated with 0, 10, or 50 mg/kg DIDS is shown. Plots represent the population of cells in the lymphocyte gate stained for expression of B220 (y-axis) and CD19 (x-axis). The numbers in the upper right corner of each plot provide the percentage of B220+/CD19+ cells for each analysis. The progression of B-cell maturation from early/pre-GC to post-GC is indicated below.

[2] = tested on: BXSB.Yaa Cd8/IL15−/− mice; assay: mouse systemic lupus erythematosus (SLE) model treated with DIDS; assay type: in vivo
Source text: BXSB.Yaa Cd8/IL15−/− mice are an established model for SLE. These mice display many characteristics of human SLE including hypergammaglobulinemia, circulating antinuclear antibodies and immune complex medicated glomerulonephritis, and ultimately succumb to disease around 24 weeks of age (Andrews et al. 1978, J Exp Med 148: 1198-215; Dixon et al. 1978, Arthritis Rheum 21: S64-7; Izui et al. 2000, Int Rev Immunol 19: 447-72). Genetic deletion of Cd8a and IL15 from the model results in a similar clinical phenotype which appears much early with survival averaging 14 weeks of age (McPhee et al. 2011, J Immunol 187:4695-4704)
Six week old male BXSB.Cg-Cd8a<tm1Mak> IL15<tm1Imx>/Dcr (abbreviated as BXSB.Yaa Cd8/IL15−/−) mice were retro-orbitally bled into heparin primed tubes to collect serum. 25 mg/kg (n=5) or 50 mg/kg DIDS (n=6) in 4% potassium bicarbonate with PBS or an equivalent volume of 4% potassium bicarbonate (n=2 and n=4) was administered intraperitoneally on day 0, and every seven days for five weeks. Mice were weighed weekly and serum was collected at 14 day intervals for a 5-week period. These mice were then aged for survival. The serum was analyzed by ELISA for IgG1 and IgG2b content. For the ELISA plates were coated with goat anti-mouse Ig (IgG1 or IgG2b) and incubated overnight at […] Plates were washed three times and P-nitrophenyl Phosphate (p-NPP, AMRESCO) was applied, incubated until standards developed adequately and read on a SpectraMax ELISA plate reader using SoftmaxPro software. Data are expressed as concentration of IgG (mg/ml) based on titration of isotype-specific purified mouse standards. […] Survival data was analyzed using Graphpad Prism software and assessed for statistical significance using both the log-rank Mantel Cox with (FIG. 20A for the 25 mg/kg group with a p value of 0.4289 and FIG. 20B for the 50 mg/kg group with a p value of 0.3698) and Gehan-Breslow-Wilcoxan tests (FIG. 21A for the 25 mg/kg group with a p value of 0.7003 and FIG. 21B for the 50 mg/kg group with a p value of 0.7505).

[3] = tested on: AID-negative (AID−) primary human CLL cells; assay: survival of primary human CLL cells cultured with DIDS (manual cytometry); assay type: cell-based; details: 30 micromolar DIDS, 2, 4 or 8 days, versus untreated
Protocol: AID-expressing (AID+) or AID-negative (AID−) primary human CLL cells were cultured as described in Example 4. Cells were cultured in basic RPMI-1640 medium without supplementation (untreated; triangle in FIG. 17) or with 30 micromolar DIDS. Open circles represent the data for AID-negative cells treated with 30 micromolar DIDS and filled boxes represent the data for AID-positive cells treated with 30 micromolar DIDS. The cell survival was scored by manual cytometry for viable cells after 2, 4, or 8 days of exposure.
Eight AID+ and eight AID− CLL samples were cultured in basic RPMI-1640 medium plus 30 micromolar DIDS, and survival was scored by manual cytometry for viable cells after 2, 4, 6, or 8 days. […] A total of 117 lymphoma or leukemia patients were studies, of which 106 were CLL patients. In 47% AID expression was determined by RT-PCR.

[4] = tested on: mouse B-lymphoid leukemia cell line CH12-F3; assay: total cell counts of CH12-F3 cells cultured with DIDS; assay type: cell-based
Protocol: The mouse B-lymphoid leukemia cell line CH12-F3 was cultured in RPMI-1640 medium supplemented with 2-10 mM L-glutamine (Gibco), 10% (vol/vol) heat-inactivated fetal bovine serum (Omega Scientific) and 5% (vol/vol) NCTC 109 media (Gibco) (complete RPMI; non-activated) or complete RPMI-1640 medium containing 1 μg/ml anti-CD40 antibody, 25 ng/ml IL-4 and 1 ng/ml transforming growth factor beta 1 (TGF-beta1) (activated). Cultures were supplemented with 0, 50, 100, or 150 micromolar DIDS, and total cell counts were determined by manual cytometry after 0, 1, 2, 3, 4, or 6 days in culture.

O=S(=O)([O-])c1cc(N=C=S)ccc1/C=C/c1ccc(N=C=S)cc1S(=O)(=O)[O-].[Na+].[Na+] [DIDS, 4,4′diisothiocyanostilbene-2,2′-disulfonic acid]
weight gain (fractional change in body mass) ([1]; 0 mg/kg control and 50 mg/kg cohorts, after 5 weeks): independent of DIDS exposure | overt signs of toxicity ([1]; 10 mg/kg or 50 mg/kg DIDS at weekly intervals, 7 weeks): No animals in either the control or DIDS-treated groups showed overt signs of toxicity | overt non-B-cell toxicity ([1]; AID+/+ or AID−/− cohort): none of the DIDS treated animals | percentages of splenic B-cells (flow cytometry) ([1]; AID+/+ or AID−/− mice): no consistent differences | toxicity / splenic physiology ([1]; at least up to 50 mg/kg, AID+/+ or AID−/− mice): does not induce significant toxicity or general defects in splenic physiology | reduction in circulating B-lymphoid cells (flow cytometry) ([1]; both 10 mg/kg and 50 mg/kg DIDS, AID+/+ mice): 9-11 fold | reduction in B220+CD19+ B-cells in the bone marrow (flow cytometry) ([1]; both 10 mg/kg and 50 mg/kg treated AID+/+ mice): 25% | spleen sections, H&E staining ([1]; untreated versus DIDS-treated animals, after 7 weeks): no gross anatomical defects or differences in germinal center (GC) architecture | IgG2b serum content (ELISA) ([2]; 25 mg/kg DIDS intraperitoneally every seven days): striking decrease | body weight ([2]; 25 mg/kg DIDS intraperitoneally every seven days for five weeks, versus controls): no weight difference | IgG1 serum content (ELISA) ([2]; DIDS intraperitoneally every seven days): No significant difference | cell survival (viable cells) [3]: indistinguishable | total cell number ([4]; activated cells (anti-CD40, IL-4, TGF-beta1), 150 micromolar DIDS): strong decrease of total cell number | total cell number ([4]; non-activated cells, 0-150 micromolar DIDS): no difference in cell viability or cell proliferation
